Source: ChEMBL document CHEMBL5236593, “Design, synthesis and biological evaluation studies of novel anti-fibrosis agents bearing sulfoxide moiety” (2022)
Calls of active or inactive are those of the source. No cut-off for these calls is given here.

What was measured:
HRMC [1] = experiment: Anti-fibrotic activity in human HRMC cells assessed as downregulation of COL4A1 mRNA expression at 1 uM pretreated with compound for 30 mins followed by TGF-beta stimulation and measured after 24 hrs by qRT-PCR analysis; format: functional, cell-based; settings: time 24.5 hrs
Mus musculus [2] = experiment: (§1) Anti-fibrotic activity against BLM-induced pulmonary fibrosis C57BL/6 mouse model assessed as reduction in lung fibrosis at 200 mg/kg administered via gavage for 13 days with first injection started at 24 hrs post-first BLM challenge and measured after 24 hrs by Ashcroft score based analysis; format: functional, organism-based; settings: time 14.0 day
[3] = Anti-fibrotic activity in human NHCF-V cells assessed as downregulation of CTGF mRNA expression at 0.1 to 1 uM pretreated with compound for 30 mins followed by TGF-beta stimulation and measured after 24 hrs by qRT-PCR analysis; format: functional; settings: dose 0.1-1 µM, time 24.5 hrs
Mus musculus [4] = experiment: (§2) Anti-fibrotic activity against CCl4-induced liver fibrosis C57BL/6 mouse model assessed as reduction in serum ALT level at 200 mg/kg, ig administered for 27 days with first injection started at 24 hrs post-first CCl4 challenge and measured at 48 hrs post-last administration; format: functional, organism-based; settings: time 29.0 day
HRMC [5] = experiment: Anti-fibrotic activity in human HRMC cells assessed as downregulation of IL11 mRNA expression at 1 uM pretreated with compound for 30 mins followed by TGF-beta stimulation and measured after 24 hrs by qRT-PCR analysis; format: functional, cell-based; settings: time 24.5 hrs
Mus musculus [6] = experiment: as §1, with “lung inflammation” for “lung fibrosis”, “by Masson's trichrome staining” for “by Ashcroft score”; format: functional, organism-based; settings: time 14.0 day
Mus musculus [7] = experiment: Anti-fibrotic activity against BLM-induced pulmonary fibrosis C57BL/6 mouse model assessed as reduction in hydroxyproline content in lungs at 200 mg/kg administered via gavage for 13 days with first injection started at 24 hrs post-first BLM challenge and measured after 24 hrs; format: functional, organism-based; settings: time 14.0 day
Mus musculus [8] = experiment: (§3) Anti-fibrotic activity against BLM-induced pulmonary fibrosis C57BL/6 mouse model assessed as reduction in area of lung fibrosis at 200 mg/kg administered via gavage for 13 days with first injection started at 24 hrs post-first BLM challenge and measured after 24 hrs by H and E staining based microscopic analysis; format: functional, organism-based; settings: time 14.0 day
LX-2 [9] = experiment: Anti-fibrotic activity in human LX2 cells assessed as downregulation of ACTA2 mRNA expression at 0.1 to 1 uM pretreated with compound for 30 mins followed by TGF-beta stimulation and measured after 24 hrs by qRT-PCR analysis; format: functional, cell-based; settings: dose 0.1-1 µM, time 24.5 hrs
Mus musculus [10] = experiment: Anti-fibrotic activity against CCl4-induced liver fibrosis C57BL/6 mouse model assessed as reduction in serum hydroxyproline content at 200 mg/kg, ig administered for 27 days with first injection started at 24 hrs post-first CCl4 challenge and measured at 48 hrs post-last administration; format: functional, organism-based; settings: time 29.0 day
Mus musculus [11] = experiment: as §3, with “Masson's trichrome” for “H and E”, “based” for “based microscopic”; format: functional, organism-based; settings: time 14.0 day
Mus musculus [12] = experiment: as §3, with “in” for “in area of”, “lung inflammation” for “lung fibrosis”; format: functional, organism-based; settings: time 14.0 day
Mus musculus [13] = experiment: Anti-fibrotic activity against CCl4-induced liver fibrosis C57BL/6 mouse model assessed as reduction in serum IBIL level at 200 mg/kg, ig administered for 27 days with first injection started at 24 hrs post-first CCl4 challenge and measured at 48 hrs post-last administration; format: functional, organism-based; settings: time 29.0 day
[14] = Anti-fibrotic activity in human NHCF-V cells assessed as downregulation of ACTA2 mRNA expression at 0.1 to 1 uM pretreated with compound for 30 mins followed by TGF-beta stimulation and measured after 24 hrs by qRT-PCR analysis; format: functional; settings: dose 0.1-1 µM, time 24.5 hrs
HRMC [15] = experiment: Anti-fibrotic activity in human HRMC cells assessed as downregulation of CTGF mRNA expression at 1 uM pretreated with compound for 30 mins followed by TGF-beta stimulation and measured after 24 hrs by qRT-PCR analysis; format: functional, cell-based; settings: time 24.5 hrs
[16] = Anti-fibrotic activity in human NHCF-V cells assessed as downregulation of PAI-1 mRNA expression at 0.1 to 1 uM pretreated with compound for 30 mins followed by TGF-beta stimulation and measured after 24 hrs by qRT-PCR analysis; format: functional; settings: dose 0.1-1 µM, time 24.5 hrs
Mus musculus [17] = experiment: Anti-fibrotic activity against CCl4-induced liver fibrosis C57BL/6 mouse model assessed as reduction in serum TBIL level at 200 mg/kg, ig administered for 27 days with first injection started at 24 hrs post-first CCl4 challenge and measured at 48 hrs post-last administration; format: functional, organism-based; settings: time 29.0 day
LX-2 [18] = experiment: Anti-fibrotic activity in human LX2 cells assessed as downregulation of CTGF mRNA expression at 0.1 to 1 uM pretreated with compound for 30 mins followed by TGF-beta stimulation and measured after 24 hrs by qRT-PCR analysis; format: functional, cell-based; settings: dose 0.1-1 µM, time 24.5 hrs
Mus musculus [19] = experiment: as §2, with “liver bridging fibrosis” for “serum ALT level”, “administration by Masson's trichrome staining based analysis” for “administration”; format: functional, organism-based; settings: time 29.0 day
HRMC [20] = experiment: Anti-fibrotic activity in human HRMC cells assessed as downregulation of COL16A1 mRNA expression at 1 uM pretreated with compound for 30 mins followed by TGF-beta stimulation and measured after 24 hrs by qRT-PCR analysis; format: functional, cell-based; settings: time 24.5 hrs
NHCF-V [21] = experiment: Anti-fibrotic activity in human NHCF-V cells assessed as downregulation of TGF-beta1 mRNA expression at 1 uM pretreated with compound for 30 mins followed by TGF-beta stimulation and measured after 24 hrs by qRT-PCR analysis; format: functional, cell-based; settings: time 24.5 hrs
NHCF-V [22] = experiment: Anti-fibrotic activity in human NHCF-V cells assessed as downregulation of CTGF mRNA expression at 1 uM pretreated with compound for 30 mins followed by TGF-beta stimulation and measured after 24 hrs by qRT-PCR analysis; format: functional, cell-based; settings: time 24.5 hrs
LX-2 [23] = experiment: Anti-fibrotic activity in human LX2 cells assessed as downregulation of ACTA2 mRNA expression at 1 uM pretreated with compound for 30 mins followed by TGF-beta stimulation and measured after 24 hrs by qRT-PCR analysis; format: functional, cell-based; settings: time 24.5 hrs
NHCF-V [24] = experiment: Anti-fibrotic activity in human NHCF-V cells assessed as downregulation of PAI-1 mRNA expression at 1 uM pretreated with compound for 30 mins followed by TGF-beta stimulation and measured after 24 hrs by qRT-PCR analysis; format: functional, cell-based; settings: time 24.5 hrs
LX-2 [25] = experiment: Anti-fibrotic activity in human LX2 cells assessed as downregulation of COL1A1 mRNA expression at 1 uM pretreated with compound for 30 mins followed by TGF-beta stimulation and measured after 24 hrs by qRT-PCR analysis; format: functional, cell-based; settings: time 24.5 hrs
LX-2 [26] = experiment: Anti-fibrotic activity in human LX2 cells assessed as downregulation of CTGF mRNA expression at 1 uM pretreated with compound for 30 mins followed by TGF-beta stimulation and measured after 24 hrs by qRT-PCR analysis; format: functional, cell-based; settings: time 24.5 hrs
NHCF-V [27] = experiment: Anti-fibrotic activity in human NHCF-V cells assessed as downregulation of ACTA2 mRNA expression at 1 uM pretreated with compound for 30 mins followed by TGF-beta stimulation and measured after 24 hrs by qRT-PCR analysis; format: functional, cell-based; settings: time 24.5 hrs
LX-2 [28] = experiment: Anti-fibrotic activity in human LX2 cells assessed as downregulation of PAI-1 mRNA expression at 1 uM pretreated with compound for 30 mins followed by TGF-beta stimulation and measured after 24 hrs by qRT-PCR analysis; format: functional, cell-based; settings: time 24.5 hrs
Mus musculus [29] = experiment: as §2, with “liver bridging fibrosis” for “serum ALT level”, “250” for “200”, “administration by Masson's trichrome staining based analysis” for “administration”; format: functional, organism-based; settings: time 29.0 day

**Q.** Which Activity (HRMC [1]) does the source give for `CC1(C[S+]([O-])Cc2ccccc2)COC1` (centres undefined) here?
**A.** inactive

**Q.** What about the Activity (Mus musculus [2]) of the same compound?
**A.** Active

**Q.** And the “inhibition (INH)” value [3]?
**A.** <30%

**Q.** What about the Activity (Mus musculus [4]) of the same compound?
**A.** Active

**Q.** What about the Activity (HRMC [5]) of the same compound?
**A.** inactive

**Q.** What about the Activity (Mus musculus [6]) of the same compound?
**A.** Active

**Q.** What about the Activity (Mus musculus [7]) of the same compound?
**A.** Active

**Q.** And the Activity (Mus musculus [8])?
**A.** Active

**Q.** And the Activity (LX-2 [9])?
**A.** Active

**Q.** And the Activity (Mus musculus [10])?
**A.** Active

**Q.** And the Activity (Mus musculus [11])?
**A.** Active

**Q.** What about the Activity (Mus musculus [12]) of the same compound?
**A.** Active

**Q.** And the Activity (Mus musculus [13])?
**A.** Active

**Q.** What about the “inhibition (INH)” value [14] of the same compound?
**A.** <30%

**Q.** And the Activity (HRMC [15])?
**A.** inactive

**Q.** What about the “inhibition (INH)” value [16] of the same compound?
**A.** <30%

**Q.** What about the Activity (Mus musculus [17]) of the same compound?
**A.** Active

**Q.** What about the Activity (LX-2 [18]) of the same compound?
**A.** Active

**Q.** And the Activity (Mus musculus [19])?
**A.** Active

**Q.** What about the Activity (HRMC [20]) of the same compound?
**A.** inactive

**Q.** What does the source list for `CC1(C[S+]([O-])c2ccccc2)COC1` (centres undefined)?
**A.** Activity (HRMC [1]): inactive; Activity (NHCF-V [21]): inactive; Activity (Mus musculus [2]): Active; Activity (Mus musculus [4]): Active; Activity (HRMC [5]): inactive; Activity (NHCF-V [22]): inactive; Activity (LX-2 [23]): inactive; Activity (NHCF-V [24]): inactive; Activity (LX-2 [25]): inactive; Activity (Mus musculus [13]): Active; Activity (LX-2 [26]): inactive; Activity (NHCF-V [27]): inactive; Activity (LX-2 [28]): inactive; Activity (HRMC [15]): inactive; Activity (Mus musculus [17]): Active; Activity (Mus musculus [19]): inactive; Activity (HRMC [20]): inactive

**Q.** For `CCC1(C[S+]([O-])c2cccc(F)c2)COC1` (centres undefined), which Activity (NHCF-V [24]) is on record?
**A.** Active

**Q.** For `NC(=O)C[S+]([O-])Cc1ccccc1` (centres undefined), which Activity (HRMC [1]) is on record?
**A.** inactive

**Q.** And the Activity (NHCF-V [21])?
**A.** inactive

**Q.** And the Activity (HRMC [5])?
**A.** inactive

**Q.** And the Activity (NHCF-V [22])?
**A.** inactive

**Q.** And the Activity (LX-2 [23])?
**A.** inactive

**Q.** And the Activity (NHCF-V [24])?
**A.** inactive

**Q.** What about the Activity (LX-2 [25]) of the same compound?
**A.** inactive

**Q.** What about the Activity (LX-2 [26]) of the same compound?
**A.** inactive

**Q.** What about the Activity (NHCF-V [27]) of the same compound?
**A.** inactive

**Q.** What about the Activity (LX-2 [28]) of the same compound?
**A.** inactive

**Q.** And the Activity (HRMC [15])?
**A.** inactive

**Q.** And the Activity (HRMC [20])?
**A.** inactive

**Q.** For `CC1(C[S+]([O-])c2cccc(F)c2)COC1` (centres undefined), which Activity (HRMC [20]) is on record?
**A.** Active

**Q.** Which Activity (Mus musculus [29]) does the source give for `Cc1ccc(=O)n(-c2ccccc2)c1` here?
**A.** Active

**Q.** Which results are given for `NC(=O)C[S+]([O-])c1cccc(F)c1` (centres undefined)?
**A.** Activity (HRMC [1]): inactive; Activity (NHCF-V [21]): inactive; Activity (HRMC [5]): inactive; Activity (NHCF-V [22]): inactive; Activity (LX-2 [23]): inactive; Activity (NHCF-V [24]): inactive; Activity (LX-2 [25]): inactive; Activity (LX-2 [26]): inactive; Activity (NHCF-V [27]): inactive; Activity (LX-2 [28]): inactive; Activity (HRMC [15]): inactive; Activity (HRMC [20]): inactive
